Measured values published in ChEMBL document CHEMBL1909046, “DrugMatrix in vitro pharmacology data”.

Legend:
[1] = DRUGMATRIX: Glutamate, AMPA radioligand binding (ligand: [3H] AMPA); assay type: cell membranes, Rattus norvegicus, Wistar, Cerebral cortex, Membrane; conditions: Not Active = under 50% inhibition at 10 µM
Cytochrome P450 3A4 = Cytochrome P450 3A4 (Homo sapiens, UniProt P08684); conditions: bti-tn-5b1-4; further: in other assays of this panel Not Active means under 50% inhibition at 10 µM
Cannabinoid receptor 1 = Cannabinoid receptor 1 (Homo sapiens, UniProt P21554); assay type: cell membranes, Chem-1, Membrane; further: in other assays of this panel Not Active means under 50% inhibition at 10 µM
[2] = biological target: T1, Polyunsaturated fatty acid lipoxygenase ALOX15 (Oryctolagus cuniculus, UniProt P12530); experiment: biochemical; assay type: tissue-based, Reticulocytes;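 further: inhibition of 15-lipoxygenase enzyme activity measured with linoleic acid as the substrate; in other assays of this panel Not Active means under 50% inhibition at 10 µM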
T1 sequence (P12530 whole entry): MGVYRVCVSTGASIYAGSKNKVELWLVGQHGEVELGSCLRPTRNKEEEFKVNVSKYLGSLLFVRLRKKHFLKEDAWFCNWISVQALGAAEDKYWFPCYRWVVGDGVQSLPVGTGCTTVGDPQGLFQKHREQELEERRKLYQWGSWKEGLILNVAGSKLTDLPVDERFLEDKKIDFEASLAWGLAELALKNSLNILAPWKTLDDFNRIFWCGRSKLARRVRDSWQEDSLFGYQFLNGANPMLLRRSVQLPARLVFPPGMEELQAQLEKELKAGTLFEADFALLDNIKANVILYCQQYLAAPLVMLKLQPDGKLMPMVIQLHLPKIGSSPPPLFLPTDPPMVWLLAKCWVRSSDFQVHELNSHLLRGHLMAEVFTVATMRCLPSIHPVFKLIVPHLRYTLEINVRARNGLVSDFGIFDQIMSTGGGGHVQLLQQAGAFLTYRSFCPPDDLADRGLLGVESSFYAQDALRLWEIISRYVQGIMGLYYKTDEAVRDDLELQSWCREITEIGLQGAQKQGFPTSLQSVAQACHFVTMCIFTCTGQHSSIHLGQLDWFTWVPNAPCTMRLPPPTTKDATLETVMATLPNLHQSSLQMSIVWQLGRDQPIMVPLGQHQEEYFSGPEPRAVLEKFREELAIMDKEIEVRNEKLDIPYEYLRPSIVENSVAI

[3] = DRUGMATRIX: Sigma2 radioligand binding (ligand: [3H] Ifenprodil); assay type: cell membranes, Rattus norvegicus, Wistar, Brain, Membrane; conditions: Not Active = under 50% inhibition at 10 µM
Adenosine receptor A2a = Adenosine receptor A2a (Homo sapiens, UniProt P29274); experiment: DRUGMATRIX: Adenosine A2A radioligand binding (ligand: […]); assay type: cell membranes, HEK293, Membrane; conditions: Not Active = under 50% inhibition at 10 µM
Adenosine receptor A2a, sequence (P29274 whole entry): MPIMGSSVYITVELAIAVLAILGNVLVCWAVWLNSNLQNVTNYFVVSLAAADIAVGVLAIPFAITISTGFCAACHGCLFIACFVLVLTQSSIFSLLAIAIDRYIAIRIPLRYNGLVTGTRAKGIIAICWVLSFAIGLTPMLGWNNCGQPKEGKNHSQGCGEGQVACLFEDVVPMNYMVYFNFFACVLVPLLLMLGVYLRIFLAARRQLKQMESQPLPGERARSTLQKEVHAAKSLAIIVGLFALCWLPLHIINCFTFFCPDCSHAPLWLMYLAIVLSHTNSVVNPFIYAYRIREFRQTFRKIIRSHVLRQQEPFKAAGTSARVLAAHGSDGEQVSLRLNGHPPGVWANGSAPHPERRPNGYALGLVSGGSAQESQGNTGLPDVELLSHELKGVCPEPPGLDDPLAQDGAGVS

Cytochrome P450 3A4, sequence (P08684 whole entry): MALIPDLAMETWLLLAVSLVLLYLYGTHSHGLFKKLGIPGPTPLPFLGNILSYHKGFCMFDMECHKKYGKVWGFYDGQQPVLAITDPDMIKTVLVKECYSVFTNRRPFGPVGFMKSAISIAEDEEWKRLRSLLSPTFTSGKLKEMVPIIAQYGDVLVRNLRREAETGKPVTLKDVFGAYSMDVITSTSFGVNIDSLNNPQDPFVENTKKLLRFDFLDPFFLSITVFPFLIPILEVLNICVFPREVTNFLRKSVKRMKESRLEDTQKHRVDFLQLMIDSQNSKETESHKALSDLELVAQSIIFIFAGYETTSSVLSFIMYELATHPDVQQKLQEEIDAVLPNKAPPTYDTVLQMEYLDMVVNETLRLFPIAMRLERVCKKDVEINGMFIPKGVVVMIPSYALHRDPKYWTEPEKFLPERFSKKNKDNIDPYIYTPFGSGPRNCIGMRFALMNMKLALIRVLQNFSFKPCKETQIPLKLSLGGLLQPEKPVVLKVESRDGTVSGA
Cannabinoid receptor 1, sequence (P21554 whole entry): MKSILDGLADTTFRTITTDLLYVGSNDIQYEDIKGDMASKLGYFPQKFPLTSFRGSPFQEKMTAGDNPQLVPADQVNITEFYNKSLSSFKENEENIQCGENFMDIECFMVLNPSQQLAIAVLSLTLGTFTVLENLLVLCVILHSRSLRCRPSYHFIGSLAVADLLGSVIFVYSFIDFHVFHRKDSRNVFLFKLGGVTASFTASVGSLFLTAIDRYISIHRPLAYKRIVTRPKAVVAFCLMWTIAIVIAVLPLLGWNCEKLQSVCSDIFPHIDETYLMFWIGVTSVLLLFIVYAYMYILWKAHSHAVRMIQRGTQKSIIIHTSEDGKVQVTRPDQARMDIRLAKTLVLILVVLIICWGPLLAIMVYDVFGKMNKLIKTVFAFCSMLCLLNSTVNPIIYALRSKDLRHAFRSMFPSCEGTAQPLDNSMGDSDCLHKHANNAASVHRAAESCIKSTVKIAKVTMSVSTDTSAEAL

Compound | IC50 [1] | Ki [1] | IC50 (Cytochrome P450 3A4) | Ki (Cytochrome P450 3A4) | IC50 (Cannabinoid receptor 1; chem-1) | IC50 ([2]; reticulocytes) | IC50 [3] | Ki [3] | IC50 (Adenosine receptor A2a; hek293) | IC50 (Cannabinoid receptor 1; read-out: IC50) [nM] | Ki (Cannabinoid receptor 1; read-out: Ki) [nM] | IC50 ([2]; read-out: IC50) [nM] | IC50 ([3]; read-out: IC50) [nM] | Ki ([3]; read-out: Ki) [nM] | IC50 (Adenosine receptor A2a; read-out: IC50) [nM] | Ki (Adenosine receptor A2a; read-out: Ki) [nM] | Ki (Cannabinoid receptor 1; chem-1) | Ki ([2]; reticulocytes) | Ki (Adenosine receptor A2a; hek293)
CC(C)Cc1ccc(C(C)C(=O)O)cc1 (centres undefined) [IBUPROFEN] | Not Active | Not Active | Not Active | Not Active | Not Active | Not Active | Not Active | Not Active | Not Active |  |  |  |  |  |  |  |  |  | 
COc1ccc2c(c1)c(CC(=O)O)c(C)n2C(=O)c1ccc(Cl)cc1 [INDOMETHACIN] | Not Active | Not Active | Not Active | Not Active | Not Active | Not Active | Not Active | Not Active | Not Active |  |  |  |  |  |  |  |  |  | 
CCc1c2c(nc3ccc(OC(=O)N4CCC(N5CCCCC5)CC4)cc13)-c1cc3c(c(=O)n1C2)COC(=O)[C@]3(O)CC [IRINOTECAN] | Not Active | Not Active | Not Active | Not Active | Not Active | Not Active | Not Active | Not Active | Not Active |  |  |  |  |  |  |  |  |  | 
CC(C(=O)O)c1cccc(C(=O)c2ccccc2)c1 (centres undefined) [KETOPROFEN] | Not Active | Not Active | Not Active | Not Active | Not Active | Not Active | Not Active | Not Active | Not Active |  |  |  |  |  |  |  |  |  | 
Nc1ccn([C@@H]2CS[C@H](CO)O2)c(=O)n1 [LAMIVUDINE] | Not Active | Not Active | Not Active | Not Active | Not Active | Not Active | Not Active | Not Active | Not Active |  |  |  |  |  |  |  |  |  | 
O=S(=O)([O-])CCS.[Na+] [MESNA] | Not Active | Not Active | Not Active | Not Active | Not Active | Not Active | Not Active | Not Active | Not Active |  |  |  |  |  |  |  |  |  | 
C#C[C@]1(O)CC[C@H]2[C@@H]3CCc4cc(OC)ccc4[C@H]3CC[C@@]21C [MESTRANOL] | Not Active | Not Active | Not Active | Not Active |  | Not Active | Not Active | Not Active | Not Active | 28500 | 22500 |  |  |  |  |  |  |  | 
CC(=O)Nc1cccc(O)c1 [METACETAMOL] | Not Active | Not Active | Not Active | Not Active | Not Active | Not Active | Not Active | Not Active | Not Active |  |  |  |  |  |  |  |  |  | 
Cc1ncc([N+](=O)[O-])n1CCO [METRONIDAZOLE] | Not Active | Not Active | Not Active | Not Active | Not Active | Not Active | Not Active | Not Active | Not Active |  |  |  |  |  |  |  |  |  | 
Oc1ccc(OCc2ccccc2)cc1 [MONOBENZONE] | Not Active | Not Active | Not Active | Not Active | Not Active |  | Not Active | Not Active | Not Active |  |  | 4890 |  |  |  |  |  |  | 
CC(C)(Oc1ccc(C2CCCc3ccccc32)cc1)C(=O)O (centres undefined) [NAFENOPIN] | Not Active | Not Active | Not Active | Not Active | Not Active | Not Active | Not Active | Not Active | Not Active |  |  |  |  |  |  |  |  |  | 
CC(C)[C@H]1CC[C@H](C(=O)N[C@H](Cc2ccccc2)C(=O)O)CC1 [NATEGLINIDE] | Not Active | Not Active | Not Active | Not Active | Not Active | Not Active | Not Active | Not Active | Not Active |  |  |  |  |  |  |  |  |  | 
CCN[C@@H]1C[C@H](N)[C@@H](O[C@H]2OC(CN)=CC[C@H]2N)[C@H](O)[C@H]1O[C@H]1OC[C@](C)(O)[C@H](NC)[C@H]1O [NETILMICIN] | Not Active | Not Active | Not Active | Not Active | Not Active | Not Active | Not Active | Not Active | Not Active |  |  |  |  |  |  |  |  |  | 
CCOC(=O)C1=C(C)NC(C)=C(C(=O)OC)C1c1cccc([N+](=O)[O-])c1 (centres undefined) [NITRENDIPINE] | Not Active | Not Active | Not Active | Not Active | Not Active | Not Active | Not Active | Not Active | Not Active |  |  |  |  |  |  |  |  |  | 
C#C[C@]1(OC(C)=O)CC[C@H]2[C@@H]3CCC4=CC(=O)CC[C@@H]4[C@H]3CC[C@@]21C [NORETHINDRONE ACETATE] | Not Active | Not Active | Not Active | Not Active | Not Active | Not Active | Not Active | Not Active | Not Active |  |  |  |  |  |  |  |  |  | 
COc1ccc2[nH]c([S+]([O-])Cc3ncc(C)c(OC)c3C)nc2c1 (centres undefined) [OMEPRAZOLE] | Not Active | Not Active | Not Active | Not Active | Not Active | Not Active | Not Active | Not Active | Not Active |  |  |  |  |  |  |  |  |  | 
Cc1nccn1CC1CCc2c(c3ccccc3n2C)C1=O (centres undefined) [ONDANSETRON] | Not Active | Not Active | Not Active | Not Active | Not Active | Not Active | Not Active | Not Active | Not Active |  |  |  |  |  |  |  |  |  | 
CCCCOc1ccc(OCCCN2CCOCC2)cc1 [PRAMOXINE] | Not Active | Not Active | Not Active | Not Active | Not Active | Not Active |  |  | Not Active |  |  |  | 1030 | 633 |  |  |  |  | 
O=C(C1CCCCC1)N1CC(=O)N2CCc3ccccc3C2C1 (centres undefined) [PRAZIQUANTEL] | Not Active | Not Active | Not Active | Not Active | Not Active | Not Active | Not Active | Not Active | Not Active |  |  |  |  |  |  |  |  |  | 
CCN(CC)CCOC(=O)c1ccc(N)cc1 [PROCAINE] | Not Active | Not Active | Not Active | Not Active | Not Active | Not Active | Not Active | Not Active | Not Active |  |  |  |  |  |  |  |  |  | 
CCCN(CCC)C(=O)C(CCC(=O)O)NC(=O)c1ccccc1 (centres undefined) [PROGLUMIDE] | Not Active | Not Active | Not Active | Not Active | Not Active | Not Active | Not Active | Not Active | Not Active |  |  |  |  |  |  |  |  |  | 
NC(=O)c1cnccn1 [PYRAZINAMIDE] | Not Active | Not Active | Not Active | Not Active | Not Active | Not Active | Not Active | Not Active | Not Active |  |  |  |  |  |  |  |  |  | 
OC(CCN1CCCCC1)(c1ccccc1)C1CCCCC1 (centres undefined) [TRIHEXYPHENIDYL] | Not Active | Not Active | Not Active | Not Active | Not Active | Not Active |  |  | Not Active |  |  |  | 3120 | 1920 |  |  |  |  | 
Cc1cc2cc3c(C)cc(=O)oc3c(C)c2o1 [TRIOXSALEN] | Not Active | Not Active | Not Active | Not Active | Not Active | Not Active | Not Active | Not Active |  |  |  |  |  |  | 1310 | 737 |  |  | 
CCCC(CCC)C(=O)O [VALPROIC ACID] | Not Active | Not Active | Not Active | Not Active | Not Active | Not Active | Not Active | Not Active | Not Active |  |  |  |  |  |  |  |  |  | 
CADMIUM DICHLORIDE | Not Active | Not Active | Not Active | Not Active | Not Active | Not Active | Not Active | Not Active | Not Active |  |  |  |  |  |  |  | Not Active | Not Active | Not Active
